Common to all, as to type: cell-based
Experiment [1] has as its system HSV-1 (herpes simplex virus type 1, strain Schooler). Nature of the experiment: HSV-1 antiviral plaque reduction assay in cell culture. The following applies: WI-38 cell culture monolayers, at least 50% plaque reduction, 4 days incubation at 37°C, read-out: ID₅₀(µM) for the following viruses HSV-1. How it is done: (§1) Assays were performed in cell culture systems to determine the concentrations of compounds that are effective in preventing several kinds of viral infections.
(§2) HSV-1 (herpes simplex virus type 1, strain Schooler), HSV-2 (herpes simplex virus type 2, strain 186), VZV (varicella zoster virus, strain ELLEN), HCMV (human cytomegalovirus, strain AD 169), MuLV (murine leukemia virus, strain CAS).
(§3) HSV-1, HSV-2, HCMV, and VZV antiviral assays: Virus was adsorbed to WI-38 cell culture monolayers in 6 well culture plates (Costar, Cambridge, MA) for 1 hour prior to addition of maintenance medium containing duplicate dilutions of the test compound. Inhibition of plaque development was evaluated on fixed and stained monolayers after 4 days incubation at 37°C for HSV-1 and HSV-2 and after 6-7 days incubation at 37°C for HCMV and VZV. ID₅₀ values were determined from the drug concentration which conferred at least a 50% plaque reduction compared to virus controls.
In general terms: In a plaque reduction assay, fewer plaques than in the control indicate reduced infectivity or spread.

The test system of experiment [2] is HSV-2 (herpes simplex virus type 2, strain 186). Nature of the experiment: HSV-2 antiviral plaque reduction assay in cell culture. To be noted: WI-38 cell culture monolayers, at least 50% plaque reduction, 4 days incubation at 37°C, read-out: ID₅₀(µM) for the following viruses HSV-2. How it is done: as §1, §2, §3
For experiment [3], the system named is VZV (varicella zoster virus, strain ELLEN). Nature of the experiment: VZV antiviral plaque reduction assay in cell culture. To be noted: WI-38 cell culture monolayers, at least 50% plaque reduction, 6-7 days incubation at 37°C, read-out: ID₅₀(µM) for the following viruses VZV. The protocol:
as §1, §2, §3

The test system of experiment [4] is HCMV (human cytomegalovirus, strain AD 169). As to the kind of experiment: HCMV antiviral plaque reduction assay in cell culture. The following applies: WI-38 cell culture monolayers, at least 50% plaque reduction, 6-7 days incubation at 37°C, read-out: ID₅₀(µM) for the following viruses HCMV. The protocol:
as §1, §2, §3

Experiment [5] deals with MuLV (murine leukemia virus, strain CAS). As to the kind of experiment: MuLV antiviral assay (XC syncytial plaque assay). To be noted: SC1, SC-1 cells, XC cell overlay, syncytial plaques counted, read-out: ID₅₀(µM) for the following viruses MuLV. How it is done: as §1, §2
MuLV antiviral assay: Antiviral assays using MuLV were performed with some modification, as described by Rowe et al. and Shannon et al.. SC-1 cells were planted at approximately 2 x 10⁵ cell per well in 6 well plates. After overnight incubation at 37°C, the cell cultures were sensitised with DEAS-Dextran for one hour at 37°C, rinsed and inoculated with MuLV. Cultures were re-fed with growth medium containing different concentrations of the test compound. After three more days at 37°C, cultures were re-fed with fresh medium plus test compounds and incubated at 37°C for an additional 3 days. Cultures were then washed to remove medium, ultraviolet light irradiated, and planted with approximately 5 x 10⁵ XC cells per well in cell growth medium containing the appropriate concentration of the test compound. […] Finally the cultures were rinsed, stained and syncytial plaques were counted. […]

The text below walks through data of EP0458363B1, “Fluorinated bis(hydroxymethyl) cyclobutyl purines and pyrimidines” (E.R. SQUIBB & SONS, INC., priority 1990, dated 1991).

Like-named read-outs stand apart in the source and are kept apart here. Bounds are passed on as bounds.

Consider `O=c1[nH]c(=O)n([C@@H]2[C@@H](F)[C@H](CO)[C@H]2CO)cc1/C=C/I` [Compound V, [1S-(1α(E),2β,3α,4β)]-1-[2-fluoro-3,4-bis(hydroxymethyl)cyclobutyl]-5-(2-iodoethenyl)-2,4-(1H,3H)-pyrimidinedione], for which the IC50 in experiment [1] (Human alphaherpesvirus 1, 96 h) is over 252 µM; in experiment [2] (Human alphaherpesvirus 2, 96 h), over 252 µM; in experiment [3] (Human alphaherpesvirus 3), 2.5 to 25.2 µM; in experiment [4] (Human betaherpesvirus 5), over 252 µM.
Turning to `Nc1nc2c(ncn2[C@@H]2[C@@H](F)[C@H](CO)[C@H]2CO)c(=O)[nH]1` (racemic) [Compound I, (1α,2β,3α,4β)-2-Amino-9-[2-fluoro-3,4-bis(hydroxymethyl)cyclobutyl]-1,9-dihydro-6H-purin-6-one], the IC50 is 0.7 to 1.8 µM in experiment [1] (Human alphaherpesvirus 1, 96 h); 0.7 µM in experiment [2] (Human alphaherpesvirus 2, 96 h); 1.8 to 3.5 µM in experiment [3] (Human alphaherpesvirus 3); 3.5 to 35 µM in experiment [4] (Human betaherpesvirus 5); 3.5 to 7 µM in experiment [5].
As to `O=c1[nH]c(=O)n([C@@H]2[C@@H](F)[C@H](CO)[C@H]2CO)cc1/C=C/Br` [Compound IV, [1S-(1α(E),2β,3α,4β)]-1-[2-fluoro-3,4-bis(hydroxymethyl)cyclobutyl]-5-(2-bromoethenyl)-2,4-(1H,3H)-pyrimidinedione], the IC50 in experiment [1] (Human alphaherpesvirus 1, 96 h) was over 286 µM; in experiment [2] (Human alphaherpesvirus 2, 96 h), over 286 µM; in experiment [3] (Human alphaherpesvirus 3) it was 28.6 to 286 µM; in experiment [4] (Human betaherpesvirus 5), over 286 µM.
As to `Nc1ncnc2c1ncn2[C@@H]1[C@@H](F)[C@H](CO)[C@H]1CO` (racemic) [Compound III, (1α,2β,3α,4β)-3-(6-Amino-9H-purin-9-yl)-4-fluoro-1,2-cyclobutanedimethanol], the IC50 in experiment [1] (Human alphaherpesvirus 1, 96 h) is 37 µM; in experiment [2] (Human alphaherpesvirus 2, 96 h) it was 7.5 to 19 µM; in experiment [3] (Human alphaherpesvirus 3) it was 37 µM; in experiment [4] (Human betaherpesvirus 5), 37 µM.
For `Nc1nc2c(ncn2[C@@H]2[C@@H](F)[C@H](CO)[C@H]2CO)c(=O)[nH]1` [Compound II, [1S-(1α,2β,3α,4β)]-2-Amino-9-[2-fluoro-3,4-bis(hydroxymethyl)cyclobutyl]-1,9-dihydro-6H-purin-6-one], the IC50 is 0.7 to 1.8 µM in experiment [1], 0.4 to 0.7 µM in experiment [2], at most 0.7 µM in experiment [3] and 18 to 35 µM in experiment [4].
